Activity calls are given as the source filed them. The calls are words filed in the database; no cut-off is given here.
Experiments:
Type in all cases: cell-based
[1] = target: T1, Protein cereblon/Estrogen receptor (Homo sapiens, UniProt P03372+Q96SW2); assay: PROTAC activity at CRBN/ERalpha in human MCF7 cells assessed as reduction in ERalpha protein level measured after 12 hrs by Western blot analysis
Target sequence in this assay (P03372 whole entry): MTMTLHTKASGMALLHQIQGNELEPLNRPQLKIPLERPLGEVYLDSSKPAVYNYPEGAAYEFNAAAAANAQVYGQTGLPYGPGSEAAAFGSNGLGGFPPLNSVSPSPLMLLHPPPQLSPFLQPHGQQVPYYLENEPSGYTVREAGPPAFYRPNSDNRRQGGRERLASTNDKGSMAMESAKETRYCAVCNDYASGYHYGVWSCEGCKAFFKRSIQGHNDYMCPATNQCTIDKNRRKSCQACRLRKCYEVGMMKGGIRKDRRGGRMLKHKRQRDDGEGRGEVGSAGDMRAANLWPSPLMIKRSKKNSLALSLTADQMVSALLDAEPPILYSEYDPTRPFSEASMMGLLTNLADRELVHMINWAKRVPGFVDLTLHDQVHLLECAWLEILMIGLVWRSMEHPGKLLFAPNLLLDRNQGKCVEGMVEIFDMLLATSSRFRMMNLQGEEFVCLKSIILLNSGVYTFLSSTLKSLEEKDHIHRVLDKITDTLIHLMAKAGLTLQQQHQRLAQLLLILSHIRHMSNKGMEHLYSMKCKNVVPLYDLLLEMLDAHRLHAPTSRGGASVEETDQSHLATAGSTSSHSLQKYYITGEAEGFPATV
Target sequence in this assay (Q96SW2 whole entry): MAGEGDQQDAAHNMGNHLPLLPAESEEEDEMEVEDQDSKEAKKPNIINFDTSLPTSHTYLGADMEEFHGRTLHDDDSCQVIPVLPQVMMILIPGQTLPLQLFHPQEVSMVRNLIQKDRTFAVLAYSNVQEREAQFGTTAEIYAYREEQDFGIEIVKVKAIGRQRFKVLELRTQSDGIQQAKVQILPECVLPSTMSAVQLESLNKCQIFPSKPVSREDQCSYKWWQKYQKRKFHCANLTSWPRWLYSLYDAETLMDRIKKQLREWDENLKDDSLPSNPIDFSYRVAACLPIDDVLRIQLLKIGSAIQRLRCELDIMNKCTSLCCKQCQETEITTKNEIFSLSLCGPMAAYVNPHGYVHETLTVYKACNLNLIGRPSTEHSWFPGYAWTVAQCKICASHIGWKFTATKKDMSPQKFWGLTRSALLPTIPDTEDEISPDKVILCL

[2] = target: T1, Protein cereblon/Estrogen receptor; assay: PROTAC activity at CRBN/ERalpha in human MCF7 cells assessed as reduction in ERalpha protein level measured after 12 hrs by Western blot analysis relative to control
Target sequence in this assay (P03372 whole entry, looked up): as the sequence (P03372 whole entry) above
Target sequence in this assay (Q96SW2 whole entry, looked up): as the sequence (Q96SW2 whole entry) above

[3] = target: T1, Protein cereblon/Estrogen receptor; assay: PROTAC activity at CRBN/wild type ERalpha in human T47D cells assessed as reduction in ERalpha protein level at 10 to 100 nM measured at 7 hrs by Western blot analysis; details: dose 10-100 nM
Target sequence in this assay (P03372 whole entry, looked up): as the sequence (P03372 whole entry) above
Target sequence in this assay (Q96SW2 whole entry, looked up): as the sequence (Q96SW2 whole entry) above

T47D [4] = assay: PROTAC activity at CRBN/ ERalpha Y537S mutant in human T47D cells assessed as reduction in ERalpha protein level at 10 to 100 nM measured at 7 hrs by Western blot analysis; design: scale not given: the % may be the effect or the level left; details: dose 10-100 nM
T47D [5] = assay: PROTAC activity at CRBN/ ERalpha D538G mutant in human T47D cells assessed as reduction in ERalpha protein level at 10 to 100 nM measured at 7 hrs by Western blot analysis; design: scale not given: the % may be the effect or the level left; details: dose 10-100 nM

Structure (SMILES)	DC50 [1] [nM]	Emax [2] [%]	Activity [3]	Activity (T47D [4])	Activity (T47D [5])
O=C1CC[C@H](N2Cc3c(ccc4c3OCC43CCN(CCCC4CCN(c5ccc([C@@H]6c7ccc(O)cc7CC[C@@H]6c6ccccc6)cc5)CC4)CC3)C2=O)C(=O)N1	0.038	98	–	–	–
O=C1CC[C@H](N2Cc3c(ccc4c3OCC43CCN(CC4CCC5(CCN(c6ccc([C@@H]7c8ccc(O)cc8CC[C@@H]7c7ccccc7)cc6)CC5)C4)CC3)C2=O)C(=O)N1 (stereo partly specified)	0.126	92	–	–	–
CCNCCc1ccc(CN(CC)c2cc(OC)ccc2[C@@H]2CCc3cc(O)ccc3C2)cc1	–	–	Active	Active	Active
O=C1CC[C@H](N2Cc3c(ccc4c3OCC43CCN(C(=O)CN4CCCC5(CCN(c6ccc([C@@H]7c8ccc(O)cc8CC[C@@H]7c7ccccc7)cc6)CC5)C4)CC3)C2=O)C(=O)N1	0.202	95	–	–	–
O=C1CC[C@H](N2Cc3c(ccc4c3OCC43CCN(C(=O)CC4CCN(c5ccc([C@@H]6c7ccc(O)cc7CC[C@@H]6c6ccccc6)cc5)CC4)CC3)C2=O)C(=O)N1	0.025	86	–	–	–
O=C1CC[C@H](N2Cc3c(ccc4c3OCC43CCN(C(=O)CN4CC5(CCN(c6ccc([C@@H]7c8ccc(O)cc8CC[C@@H]7c7ccccc7)cc6)CC5)C4)CC3)C2=O)C(=O)N1	0.018	106	–	–	–
Oc1ccc2c(c1)CC[C@H](c1ccccc1)[C@@H]2c1ccc(OCCN2CCCC2)cc1	–	–	inactive	inactive	inactive
O=C1CC[C@H](N2Cc3c(ccc4c3OCC43CCN(CC(=O)N4CC5(C4)CN(c4ccc([C@@H]6c7ccc(O)cc7CC[C@@H]6c6ccccc6)cc4)C5)CC3)C2=O)C(=O)N1	0.0142	99	–	–	–
O=C1CC[C@H](N2Cc3c(ccc4c3OCC43CCN(CC4CCC5(CCN(c6ccc([C@@H]7c8ccc(O)cc8CC[C@@H]7c7ccccc7)cc6)CC5)OC4)CC3)C2=O)C(=O)N1 (stereo partly specified)	0.139	99	–	–	–
O=C1CC[C@H](N2Cc3c(ccc4c3OCC43CCN(CC4CC5(C4)CN(c4ccc([C@@H]6c7ccc(O)cc7CC[C@@H]6c6ccccc6)cc4)C5)CC3)C2=O)C(=O)N1	0.156	81	–	–	–
O=C1CC[C@H](N2Cc3c(ccc4c3OCC43CCN(CC4CCC5(CC4)CCN(c4ccc([C@@H]6c7ccc(O)cc7CC[C@@H]6c6ccccc6)cc4)CC5)CC3)C2=O)C(=O)N1	0.337	99	–	–	–
O=C1CC[C@H](N2Cc3c(ccc4c3OCC43CCN(C(=O)CCC4CCN(c5ccc([C@@H]6c7ccc(O)cc7CC[C@@H]6c6ccccc6)cc5)CC4)CC3)C2=O)C(=O)N1	0.116	89	–	–	–
O=C1CC[C@H](N2Cc3cc(N4CCN(CC5CCN(c6ccc([C@@H]7c8ccc(O)cc8CC[C@@H]7c7ccccc7)cc6)CC5)CC4)ccc3C2=O)C(=O)N1 [VEPDEGESTRANT]	–	–	–	> 80%	> 80%
O=C1CC[C@H](N2Cc3c(ccc4c3OCC43CCN(CC(=O)N4CCCC5(CCN(c6ccc([C@@H]7c8ccc(O)cc8CC[C@@H]7c7ccccc7)cc6)CC5)C4)CC3)C2=O)C(=O)N1	0.0288	99	–	–	–
O=C1CC[C@H](N2Cc3c(ccc4c3OCC43CCN(CCC4CCN(c5ccc([C@@H]6c7ccc(O)cc7CC[C@@H]6c6ccccc6)cc5)CC4)CC3)C2=O)C(=O)N1	0.0043	80	–	–	–
C[C@]12CC[C@@H]3c4ccc(O)cc4C[C@@H](CCCCCCCCC[S+]([O-])CCCC(F)(F)C(F)(F)F)[C@H]3[C@@H]1CC[C@@H]2O (stereo partly specified)	–	100	–	–	–
O=C1CC[C@H](N2Cc3c(ccc4c3OCC43CCN(CC4CC5(CCN(c6ccc([C@@H]7c8ccc(O)cc8CC[C@@H]7c7ccccc7)cc6)CC5)CO4)CC3)C2=O)C(=O)N1 (stereo partly specified)	0.303	94	–	–	–

Structure (SMILES)	DC50 [1] [nM]	Emax [2] [%]	Activity [3]	Activity (T47D [4])	Activity (T47D [5])
O=C1CC[C@H](N2Cc3c(ccc4c3OCC43CCN(C[C@H]4CCC5(CCN(c6ccc([C@@H]7c8ccc(O)cc8CC[C@@H]7c7ccccc7)cc6)CC5)OC4)CC3)C2=O)C(=O)N1	0.142	100	–	–	–
O=C1CC[C@H](N2Cc3c(ccc4c3OCC43CCN(CC4CCC5(CCN(c6ccc([C@@H]7c8ccc(O)cc8CC[C@@H]7c7ccccc7)cc6)CC5)O4)CC3)C2=O)C(=O)N1 (stereo partly specified)	0.604	86	–	–	–
O=C1CC[C@H](N2Cc3c(ccc4c3OCC43CCN(CC4CC5(CCN(c6ccc([C@@H]7c8ccc(O)cc8CC[C@@H]7c7ccccc7)cc6)CC5)C4)CC3)C2=O)C(=O)N1	0.147	87	–	–	–
O=C1CC[C@H](N2Cc3c(ccc4c3OCC43CCN(CC4COC5(CCN(c6ccc([C@@H]7c8ccc(O)cc8CC[C@@H]7c7ccccc7)cc6)CC5)OC4)CC3)C2=O)C(=O)N1	0.167	100	–	–	–
O=C1CC[C@H](N2Cc3c(ccc4c3OCC43CCN(CCCCC4CCN(c5ccc([C@@H]6c7ccc(O)cc7CC[C@@H]6c6ccccc6)cc5)CC4)CC3)C2=O)C(=O)N1	0.031	105	–	–	–
O=C1CC[C@H](N2Cc3c(ccc4c3OCC43CCN(CCCCCC4CCN(c5ccc([C@@H]6c7ccc(O)cc7CC[C@@H]6c6ccccc6)cc5)CC4)CC3)C2=O)C(=O)N1	0.42	105	–	–	–
O=C1CC[C@H](N2Cc3c(ccc4c3OCC43CCN(CC4CCN(c5ccc([C@@H]6c7ccc(O)cc7CC[C@@H]6c6ccccc6)cc5)CC4)CC3)C2=O)C(=O)N1	–	37	–	–	–
O=C1CC[C@H](N2Cc3c(ccc4c3OCC43CCN(CC4CCC5(CC4)CN(c4ccc([C@@H]6c7ccc(O)cc7CC[C@@H]6c6ccccc6)cc4)C5)CC3)C2=O)C(=O)N1	0.11	95	–	–	–
O=C1CC[C@H](N2Cc3c(ccc4c3OCC43CCN(CC(=O)N4CCC5(CCN(c6ccc([C@@H]7c8ccc(O)cc8CC[C@@H]7c7ccccc7)cc6)CC5)C4)CC3)C2=O)C(=O)N1	0.0419	100	–	–	–
O=C1CC[C@H](N2Cc3c(ccc4c3OCC43CCN(CC(=O)N4CCC5(CC4)CCN(c4ccc([C@@H]6c7ccc(O)cc7CC[C@@H]6c6ccccc6)cc4)CC5)CC3)C2=O)C(=O)N1	0.0363	105	–	–	–
O=C1CC[C@H](N2Cc3c(ccc4c3OCC43CCN(C(=O)C4CCN(c5ccc([C@@H]6c7ccc(O)cc7CC[C@@H]6c6ccccc6)cc5)CC4)CC3)C2=O)C(=O)N1	0.028	82	–	–	–
O=C1CC[C@H](N2Cc3c(ccc4c3OCC43CCN(C(=O)CN4CCC5(CC4)CCN(c4ccc([C@@H]6c7ccc(O)cc7CC[C@@H]6c6ccccc6)cc4)CC5)CC3)C2=O)C(=O)N1	0.035	103	–	–	–
O=C1CCC(N2Cc3c(ccc4c3OCC43CCN(CC4COC5(CCN(c6ccc([C@@H]7c8ccc(O)cc8CC[C@@H]7c7ccccc7)cc6)CC5)C4)CC3)C2=O)C(=O)N1 (stereo partly specified)	0.041	79	–	–	–
O=C1CC[C@H](N2Cc3c(ccc4c3OCC43CCN(C(=O)CN4CCC5(CCN(c6ccc([C@@H]7c8ccc(O)cc8CC[C@@H]7c7ccccc7)cc6)CC5)C4)CC3)C2=O)C(=O)N1	0.029	107	–	–	–
O=C1CC[C@H](N2Cc3c(ccc4c3OCC43CCN(C(=O)CN4CC5(C4)CN(c4ccc([C@@H]6c7ccc(O)cc7CC[C@@H]6c6ccccc6)cc4)C5)CC3)C2=O)C(=O)N1	0.011	99	–	–	–
O=C1CC[C@H](N2Cc3c(ccc4c3OCC43CCN(C(=O)CCCC4CCN(c5ccc([C@@H]6c7ccc(O)cc7CC[C@@H]6c6ccccc6)cc5)CC4)CC3)C2=O)C(=O)N1	0.079	95	–	–	–
